{"source": "patent US20250019371A1", "about": "“SMALL-MOLECULAR INHIBITORS FOR THE BETA-CATENIN/ B-CELL LYMPHOMA 9 PROTEIN-PROTEIN INTERACTION” (H. LEE MOFFITT CANCER CENTER AND RESEARCH INSTITUTE, INC., priority 2021, published 2025)", "key": {"[1]": {"biological_target": "T1, β-catenin/BCL9 PPI (Homo sapiens, UniProt P35222)", "T1 construct": "Full-length β-catenin (residues 1-781); host or cells: E. coli BL21 DE3", "T1 sequence (P35222 1-781)": "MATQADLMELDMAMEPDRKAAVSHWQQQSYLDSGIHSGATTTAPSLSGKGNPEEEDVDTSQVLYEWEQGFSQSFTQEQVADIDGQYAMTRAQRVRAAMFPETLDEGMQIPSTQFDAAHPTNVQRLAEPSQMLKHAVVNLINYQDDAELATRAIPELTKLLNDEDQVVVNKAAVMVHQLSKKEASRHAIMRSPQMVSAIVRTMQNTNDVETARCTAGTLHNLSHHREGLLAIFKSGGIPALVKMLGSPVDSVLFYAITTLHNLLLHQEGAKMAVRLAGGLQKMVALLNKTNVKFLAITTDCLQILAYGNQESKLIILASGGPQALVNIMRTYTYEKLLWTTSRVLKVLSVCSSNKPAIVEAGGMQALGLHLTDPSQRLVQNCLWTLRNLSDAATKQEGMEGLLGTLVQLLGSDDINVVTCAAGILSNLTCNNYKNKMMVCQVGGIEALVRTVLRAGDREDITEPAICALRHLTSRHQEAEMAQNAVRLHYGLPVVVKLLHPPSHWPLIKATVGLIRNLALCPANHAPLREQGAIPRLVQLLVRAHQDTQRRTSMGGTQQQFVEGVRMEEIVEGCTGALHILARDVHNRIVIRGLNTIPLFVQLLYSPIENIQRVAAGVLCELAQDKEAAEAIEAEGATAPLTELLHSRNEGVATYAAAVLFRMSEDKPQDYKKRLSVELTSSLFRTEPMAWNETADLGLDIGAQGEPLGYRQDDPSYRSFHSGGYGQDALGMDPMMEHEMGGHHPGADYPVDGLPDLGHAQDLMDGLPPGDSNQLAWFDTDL", "test": "AlphaScreen competitive inhibition assay of β-catenin/BCL9 PPI", "format": "binding", "description": "AlphaScreen Assays of β-Catenin and BCL9 Interaction. Experiments were performed in white opaque 384-well plates from PerkinElmer (Waltham, MA), and the samples were read on a Biotek Synergy 2 plate reader (Winooski, VT) with excitation at 680 nm and emission at 570 nm. The standard AlphaScreen protocol was used with a sensitivity setting of 200. All dilutions were made in 1x assay buffer containing 25 mM Hepes (pH 7.4), 100 mM NaCl, 0.01% Triton X-100 and 0.1% BSA to minimize nonspecific interactions.\nFor the β-catenin/BCL9 assay, 5 nM biotinylated BCL9, and 50 nM His6-tagged 8-catenin were incubated in assay buffer for 30 min. Different concentrations of the tested inhibitor were added and incubated in 20 μL assay buffer for another 1 h. All of the assay plates were covered and gently mixed on an orbital shaker. Donor and acceptor beads were then added to the plates to a final concentration of 10 μg/mL in 25 μL assay buffer. The mixture was incubated for 1 h before detection. The IC50 value was determined by nonlinear least-square analysis of GraphPad Prism 8.0. […] All of the experiments were performed in triplicate and carried out in the presence of 1% DMSO for small-molecule inhibitors. Each compound was assayed at least by three independent experiments. The results were expressed as mean±standard deviation."}, "[2]": {"system": "FOPFlash luciferase reporter (mutated Tcf4 binding sites)", "test": "FOPFlash luciferase reporter assay in SW480 cells", "format": "cell-based", "conditions": "same concentration range as TOPFlash", "description": "The suppressing effect of the inhibitors on transactivation of Wnt/β-catenin signaling was evaluated by the TOPFlash/FOPFlash luciferase reporter assay. In the TOPFlash assay, the luciferase reporter has three wild-type Tcf4 binding sites, while in the FOPFlash assay Tcf4 binding sites were mutated. These tandem Tcf binding sites controls the expression ratio of the firefly luciferase in TOPFlash/FOPFlash assays. The renilla luciferase reporter construct (pCMV-RL) was used as the internal control to normalize luciferase reporter signals and eliminate any possible systematic errors. […] This selectivity trend is consistent with that from MTS cell viability assays. Therefore, further cell-based studies were focused on compound 30.\nCell Transfection and Luciferase Assay. FuGENE6 (E269A, Promega) 96 well plate format was used for the transfection of SW480 cells according to the manufacturer's instruction. SW480 cells were co-transfected with 60 ng the TOPFlash or FOPFlash firefly luciferase reporter gene and 40 ng renilla luciferase pCMV-RL normalization reporter gene. Cells were cultured in DMEM and 10% FBS at 37° C. for 24 h, and different concentrations of inhibitors or DMSO was added. After 24 h, the luciferase reporter activity was measured using the Dual-Glo system (E2940, Promega). […]"}, "[3]": {"system": "Axin2, cyclin D1 and LEF1 mRNA", "test": "qPCR of Wnt target genes in Wnt 3a-activated MDA-MB-231 cells", "format": "cell-based, human", "conditions": "24 h, HPRT spared", "description": "Quantitative Real Time PCR analysis. SW480 cells at 1×10^6 cells/mL were treated with inhibitors at different concentrations for 24 h. MDA-MB-231 cells at 1×10^6 cells/mL were treated with 100 ng/mL recombinant Wnt 3a (rmW3aL-010, Time BioScience) for 30 min, then the inhibitors at different concentration were added and incubated for 24 h. Total RNAs were extracted with TRIzol (15596026, Life Technologies), and the cDNA was synthesized with the superscript III first-strand kit (18080-051, Invitrogen). qPCR experiments were performed using the iQTM SYBR green supermix kit (170-8880, BIO-RAD) on an CFX96 Real Time System (BIO-RAD). The threshold cycle (CT) values were normalized to that of internal reference GAPDH. Experiments were performed in triplicate. The primer pairs are shown below"}, "[4]": {"system": "Axin2 and cyclin D1 protein expression", "test": "Western blot of Wnt target genes in SW480 cells", "format": "cell-based", "conditions": "24 h", "description": "Western Blotting of Wnt Target Genes. SW480 cells at 1×10^6 cells/mL were treated with different concentrations of inhibitors for 24 h. Cells were lysed in buffer containing 50 mM Tris, pH 7.4, 150 mM NaCl, 1% Nonidet P-40, 2 mM EDTA, and protease inhibitors. After centrifugation at 12,000 rpm for 20 min at 4° C., the supernatant was loaded onto an 8% SDS polyacrylamide gel for electrophoretic analysis. Separated proteins were transferred onto nitrocellulose membranes for immunoblot analysis. The antibodies against Axin2 (MA5-15015, Thermo Fisher), cyclin D1 (sc-853, Santa Cruz Biotechnology), and β-tubulin (sc-55529, Santa Cruz Biotechnology) were incubated with the membranes overnight at 4° C., respectively. IRDye 680LT goat anti-mouse IgG (827-11080, LiCOR) or IRDye 800CW goat anti-rabbit IgG (827-08365, LiCOR) was used as the secondary antibody. The images were detected by the Odyssey Infrared Imaging System (Odyssey Fc, LiCOR). Experiments were performed in duplicate."}}, "note": "Where two headings read alike, the source gives them in different places."}
{"molecule": "CC(C)(Oc1cccc(N2CCC[C@H](C(=O)N(Cc3ccc(-c4cccs4)cc3)C3CC3)C2)c1)C(=O)NS(=O)(=O)c1ccc(C#N)cc1", "note": "[Compound 30, (S)-((4-Cyanophenyl)sulfonyl) (2-(3-(3-(cyclopropyl(4-(thiophen-2-yl)benzyl)carbamoyl)piperidin-1-yl)phenoxy)-2-methylpropanoyl)amide]", "values": [{"measurement": "Ki", "setting": "[1]; AlphaScreen competitive inhibition assay, read-out: Ki for disruption of the β-catenin/BCL9 PPI", "value": 3.6, "unit": "µM"}, {"measurement": "AlphaScreen inhibitory activity in words", "setting": "[1]; SAR comparison", "value": "slightly superior to R-isomer"}, {"measurement": "IC50", "setting": "[1]; Table 2, AlphaScreen, inhibitors 27-30 (R- and S-isomers), preliminary", "value": "≤ 5", "unit": "µM"}, {"measurement": "Ki", "setting": "[1]; Table 2, AlphaScreen, inhibitors 27-30 (R- and S-isomers), preliminary, read-out: Ki", "value": "≤ 5", "unit": "µM"}, {"measurement": "effect on FOPFlash luciferase reporter activity", "setting": "[2]", "value": "did not show any inhibitory effect"}, {"measurement": "transcription of Wnt target genes Axin2, cyclin D1, LEF1 (qPCR)", "setting": "[3]", "value": "dose-dependently inhibited transcription of these Wnt target genes"}, {"measurement": "protein expression levels of Axin2 and cyclin D1 (Western blot)", "setting": "[4]", "value": "dose-dependently decreased"}]}
